Experimental data as given in PubChem BioAssay (NCI).
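Results reflect a 48-hour exposure of cells in 96-well plates to compound at five concentrations. GI50: concentration for 50% inhibition of growth. TGI: concentration producing complete growth inhibition.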

Key:
Test in all cases: NCI anticancer screen, dose series, 48 h
OVCAR-8 ovarian = tested on: OVCAR-8 ovarian
U251 CNS = tested on: U251 CNS
SK-OV-3 ovarian = tested on: SK-OV-3 ovarian
MDA-MB-435 = tested on: MDA-MB-435
NCI-H226 lung = tested on: NCI-H226 lung
SW-620 colon = tested on: SW-620 colon
EKVX NSCLC = tested on: EKVX NSCLC
KM12 colon = tested on: KM12 colon
SK-MEL-2 melanoma = tested on: SK-MEL-2 melanoma
RPMI-8226 leukemia = tested on: RPMI-8226 leukemia
HOP-62 NSCLC = tested on: HOP-62 NSCLC
MOLT-4 leukemia = tested on: MOLT-4 leukemia
NCI/ADR-RES ovarian = tested on: NCI/ADR-RES ovarian
SF-539 CNS = tested on: SF-539 CNS
CCRF-CEM leukemia = tested on: CCRF-CEM leukemia
OVCAR-3 ovarian = tested on: OVCAR-3 ovarian
NCI-H460 lung = tested on: NCI-H460 lung
NCI-H23 lung = tested on: NCI-H23 lung
SK-MEL-5 melanoma = tested on: SK-MEL-5 melanoma
A549 NSCLC = tested on: A549 NSCLC
CAKI-1 renal = tested on: CAKI-1 renal
RXF 393 renal = tested on: RXF 393 renal
SR leukemia = tested on: SR leukemia
A498 renal = tested on: A498 renal
PC-3 prostate = tested on: PC-3 prostate
HCT-15 colon = tested on: HCT-15 colon
BT-549 breast = tested on: BT-549 breast
NCI-H522 lung = tested on: NCI-H522 lung
T-47D breast = tested on: T-47D breast
LOX IMVI melanoma = tested on: LOX IMVI melanoma
UACC-62 melanoma = tested on: UACC-62 melanoma
DU-145 prostate = tested on: DU-145 prostate
SN12C renal = tested on: SN12C renal
MDA-MB-231 breast = tested on: MDA-MB-231 breast
ACHN renal = tested on: ACHN renal
COLO 205 colon = tested on: COLO 205 colon
SK-MEL-28 melanoma = tested on: SK-MEL-28 melanoma
786-0 renal = tested on: 786-0 renal
TK-10 renal = tested on: TK-10 renal
UO-31 renal = tested on: UO-31 renal
SF-295 CNS = tested on: SF-295 CNS
OVCAR-5 ovarian = tested on: OVCAR-5 ovarian
K-562 leukemia = tested on: K-562 leukemia
HS 578T breast = tested on: HS 578T breast
HT29 colon = tested on: HT29 colon
MCF7 breast = tested on: MCF7 breast
SF-268 CNS = tested on: SF-268 CNS
UACC-257 melanoma = tested on: UACC-257 melanoma
OVCAR-4 ovarian = tested on: OVCAR-4 ovarian
HL-60(TB) leukemia = tested on: HL-60(TB) leukemia
MALME-3M melanoma = tested on: MALME-3M melanoma
HOP-92 NSCLC = tested on: HOP-92 NSCLC
HCC-2998 colon = tested on: HCC-2998 colon
IGROV1 ovarian = tested on: IGROV1 ovarian
SNB-19 CNS = tested on: SNB-19 CNS

## CN1CCN(CCCOc2cc(O)c3c(=O)cc(-c4ccccc4)oc3c2)CC1
OVCAR-8 ovarian
  GI50: 37.1 µM
  TGI: > 100 µM
U251 CNS
  GI50: 15.1 µM
  TGI: 29 µM
SK-OV-3 ovarian
  GI50: 19.4 µM
  TGI: 38.4 µM
MDA-MB-435
  GI50: 13.7 µM
  TGI: 32.9 µM
NCI-H226 lung
  GI50: 19.5 µM
  TGI: 37 µM
SW-620 colon
  GI50: 19.5 µM
  TGI: 42.4 µM
EKVX NSCLC
  GI50: 37.6 µM
  TGI: > 100 µM
KM12 colon
  GI50: 22 µM
  TGI: 54.7 µM
SK-MEL-2 melanoma
  GI50: 35.3 µM
  TGI: > 100 µM
RPMI-8226 leukemia
  GI50: 21.3 µM
  TGI: 55.2 µM
HOP-62 NSCLC
  GI50: 16.6 µM
  TGI: 32 µM
MOLT-4 leukemia
  GI50: 17.3 µM
  TGI: 38.8 µM
NCI/ADR-RES ovarian
  GI50: 18.6 µM
  TGI: 43.2 µM
SF-539 CNS
  GI50: 17.2 µM
  TGI: 33.1 µM
CCRF-CEM leukemia
  GI50: 23.6 µM
  TGI: 56.7 µM
OVCAR-3 ovarian
  GI50: 20.8 µM
  TGI: 54.9 µM
NCI-H460 lung
  GI50: 16.7 µM
  TGI: 34.5 µM
NCI-H23 lung
  GI50: 19.9 µM
  TGI: 43.3 µM
SK-MEL-5 melanoma
  GI50: 10.3 µM
  TGI: 23.1 µM
A549 NSCLC
  GI50: 28.8 µM
  TGI: 91.1 µM
CAKI-1 renal
  GI50: 15.1 µM
  TGI: 33.4 µM
RXF 393 renal
  GI50: 30.2 µM
  TGI: 84 µM
SR leukemia
  GI50: 16.9 µM
  TGI: 44.6 µM
A498 renal
  GI50: 22 µM
  TGI: 43.4 µM
PC-3 prostate
  GI50: 31.4 µM
  TGI: > 100 µM
HCT-15 colon
  GI50: 4.6 µM
  TGI: 16.3 µM
BT-549 breast
  GI50: 21.1 µM
  TGI: 46 µM
NCI-H522 lung
  GI50: 21.6 µM
  TGI: 47 µM
T-47D breast
  GI50: 28 µM
  TGI: 79.2 µM
LOX IMVI melanoma
  GI50: 14.1 µM
  TGI: 28.4 µM
UACC-62 melanoma
  GI50: 16.3 µM
  TGI: 29.9 µM
DU-145 prostate
  GI50: 25.3 µM
  TGI: 73.7 µM
SN12C renal
  GI50: 18.9 µM
  TGI: 41.3 µM
MDA-MB-231 breast
  GI50: 16.3 µM
  TGI: 31.7 µM
ACHN renal
  GI50: 16 µM
  TGI: 29.4 µM
COLO 205 colon
  GI50: 15.5 µM
  TGI: 31.6 µM
SK-MEL-28 melanoma
  GI50: 16.1 µM
  TGI: 30.6 µM
786-0 renal
  GI50: 20.6 µM
  TGI: 43.3 µM
TK-10 renal
  GI50: 20.5 µM
  TGI: 48.3 µM
UO-31 renal
  GI50: 16.9 µM
  TGI: 47.3 µM
SF-295 CNS
  GI50: 21.1 µM
  TGI: 44.5 µM
OVCAR-5 ovarian
  GI50: 20.3 µM
  TGI: 43.6 µM
K-562 leukemia
  GI50: 6.98 µM
  TGI: 21.9 µM
HS 578T breast
  GI50: 23 µM
  TGI: 52.9 µM
HT29 colon
  GI50: 14.5 µM
  TGI: 30.4 µM
MCF7 breast
  GI50: 15.3 µM
  TGI: 30 µM
SF-268 CNS
  GI50: 20.1 µM
  TGI: 48.7 µM
UACC-257 melanoma
  GI50: 19.4 µM
  TGI: 41.1 µM
OVCAR-4 ovarian
  GI50: 16.3 µM
  TGI: 41 µM
HL-60(TB) leukemia
  GI50: 19.1 µM
  TGI: 39.5 µM
MALME-3M melanoma
  GI50: 20.8 µM
  TGI: 42.6 µM
HOP-92 NSCLC
  GI50: 14.5 µM
  TGI: 42.9 µM
HCC-2998 colon
  GI50: 14.3 µM
  TGI: 27.3 µM
IGROV1 ovarian
  GI50: 24.9 µM
  TGI: 95.3 µM
SNB-19 CNS
  GI50: 24.9 µM
  TGI: 63.5 µM
